According to ChEMBL document CHEMBL1201862, “PubChem BioAssay data set” (2004):
Active and inactive are the calls of the source.

What was measured:
[1] = target: T1, Carboxy-terminal domain RNA polymerase II polypeptide A small phosphatase 1 (Homo sapiens, UniProt Q9GZU7); test: CTDSP1 inhibitors, concentration-response, biochemical, absorbance readout, ultra-high-throughput screen actives (AID 540297); format: functional
T1 sequence (Q9GZU7 whole entry): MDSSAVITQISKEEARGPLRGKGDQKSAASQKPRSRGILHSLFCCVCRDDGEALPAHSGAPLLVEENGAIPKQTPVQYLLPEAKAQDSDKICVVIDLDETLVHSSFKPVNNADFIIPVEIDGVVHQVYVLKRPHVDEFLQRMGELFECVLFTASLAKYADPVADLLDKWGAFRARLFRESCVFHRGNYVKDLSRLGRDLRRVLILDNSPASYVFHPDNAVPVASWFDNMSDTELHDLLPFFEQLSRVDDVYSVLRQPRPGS

[2] = target: E3 ubiquitin-protein ligase Mdm2 (Homo sapiens, UniProt Q00987); test: MDM2-luc reporter signal enhancers, multi-concentration potency testing, MDM2 ubiquitin-protein ligase inhibitor program, whole-cell format, luminescence detection, 384-well microplate (AID 1394); format: functional;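 also: MDM2 E3 inhibitors raise luminescence so EC50 is for signal enhancement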
[3] = target: Mitogen-activated protein kinase 10 (Homo sapiens, UniProt P53779); test: Dose response biochemical screening assay for inhibitors of c-Jun N-Terminal Kinase 3 (JNK3). [Related pubchem assays: 746 ]
Coagulation factor XII = target: T2, Coagulation factor XII (Homo sapiens, UniProt P00748); format: functional;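 also: activated factor XIIa alpha cleaving a fluorogenic AMC peptide substrate; inhibitor potency from loss of enzyme activity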
T2 sequence (P00748 whole entry): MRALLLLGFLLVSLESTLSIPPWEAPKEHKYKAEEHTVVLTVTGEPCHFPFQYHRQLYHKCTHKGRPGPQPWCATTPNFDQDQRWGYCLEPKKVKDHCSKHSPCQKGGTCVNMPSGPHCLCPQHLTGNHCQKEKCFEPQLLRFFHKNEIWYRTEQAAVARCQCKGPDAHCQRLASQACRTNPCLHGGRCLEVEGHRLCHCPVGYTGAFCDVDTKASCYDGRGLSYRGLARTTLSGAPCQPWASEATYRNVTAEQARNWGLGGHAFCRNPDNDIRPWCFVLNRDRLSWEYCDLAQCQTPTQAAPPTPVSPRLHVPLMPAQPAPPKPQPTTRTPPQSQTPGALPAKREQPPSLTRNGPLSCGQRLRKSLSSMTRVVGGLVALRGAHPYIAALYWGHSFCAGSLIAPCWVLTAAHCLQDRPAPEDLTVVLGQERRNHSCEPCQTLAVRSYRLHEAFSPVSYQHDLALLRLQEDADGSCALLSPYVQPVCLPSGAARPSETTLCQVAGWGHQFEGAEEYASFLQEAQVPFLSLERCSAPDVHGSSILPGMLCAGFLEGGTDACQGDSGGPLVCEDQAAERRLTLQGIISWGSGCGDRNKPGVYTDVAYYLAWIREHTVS

Nonstructural protein 1 = Nonstructural protein 1 (Influenza A virus, UniProt Q194T2); format: functional, Influenza A virus (A/California/07/2009(H1N1))
[4] = target: T3, Mannose-6-phosphate isomerase (Homo sapiens, UniProt P34949); test: MPI inhibition at elevated mannose 6-phosphate – biochemical, fluorescence intensity, high mannose 6-phosphate, primary screen (AID 1220)
T3 sequence (P34949 whole entry): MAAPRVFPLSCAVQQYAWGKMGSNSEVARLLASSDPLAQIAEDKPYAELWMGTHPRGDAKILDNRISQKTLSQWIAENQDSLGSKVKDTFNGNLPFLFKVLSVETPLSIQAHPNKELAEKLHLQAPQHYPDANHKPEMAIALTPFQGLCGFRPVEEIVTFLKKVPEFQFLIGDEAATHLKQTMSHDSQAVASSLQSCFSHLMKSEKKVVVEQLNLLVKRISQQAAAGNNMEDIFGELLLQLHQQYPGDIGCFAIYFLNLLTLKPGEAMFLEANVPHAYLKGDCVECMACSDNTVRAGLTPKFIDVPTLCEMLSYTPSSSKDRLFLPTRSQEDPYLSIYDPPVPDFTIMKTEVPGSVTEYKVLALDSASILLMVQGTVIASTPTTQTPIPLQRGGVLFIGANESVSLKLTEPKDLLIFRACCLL

SUMO-activating enzyme [5] = target: T4, SUMO-activating enzyme (Homo sapiens, UniProt Q9UBT2); test: blockers of SAE1/SAE2–UBC9 SUMO transfer – biochemical, HTRF, uHTS, primary screen (AID 2006); format: protein-complex assay
[6] = target: Bifunctional protein GlmU (Mycobacterium tuberculosis, UniProt P9WMN3); test: Inhibitors of Mycobacterial Glucosamine-1-phosphate acetyl transferase (GlmU). Secondary screen.; design: species or system Mycobacterium tuberculosis H37Rv
SUMO-activating enzyme [7] = target: T4, SUMO-activating enzyme; test: blockers of UBC9-mediated SUMO conjugation – biochemical, AlphaScreen, SUMOylation inhibitor project, confirmation (AID 2018); format: functional
Jurkat = test: blockers of NF-kB activation in T cells – Jurkat, luciferase reporter, luminescence, B- and T-cell, dose response (AID 489004); format: functional, cell-based; conditions: Homo sapiens;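 also: NF-kB luciferase reporter Jurkat cells stimulated with PMA plus ionomycin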
[8] = HIV-1 AD8 envelope cell-cell fusion blockers – cherry-pick, dose response (AID 652062); format: functional, cell-based;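 also: luciferase signal from cell-cell fusion driven by HIV-1 clade B AD8 Env; potency is for inhibitors of fusion seen as a drop in luminescence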
[9] = off-target signal loss in HeLa-CEM21 co-culture – HeLa F-luc CTL cells, cherry-picked, counter-screen for HIV-1 Env fusion inhibitor project, dose response (AID 652040); format: functional, cell-based;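 also: potency for signal decrease marking cytotoxic or nonspecific inhibition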
[10] = target: T5, Heat shock factor protein 1 (Mus musculus, UniProt P38532); test: decrease of HSF1-responsive luciferase luminescence – cell-based, NIH3T3, dose retest, confirmation (AID 2382); format: functional;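 also: NIH3T3 fibroblasts with HSF1-driven luciferase reporter stressed by proteasome inhibitor MG132; luminescence from HSF1-driven luciferase expression after 8 hours of MG132 stress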
T5 sequence (P38532 whole entry): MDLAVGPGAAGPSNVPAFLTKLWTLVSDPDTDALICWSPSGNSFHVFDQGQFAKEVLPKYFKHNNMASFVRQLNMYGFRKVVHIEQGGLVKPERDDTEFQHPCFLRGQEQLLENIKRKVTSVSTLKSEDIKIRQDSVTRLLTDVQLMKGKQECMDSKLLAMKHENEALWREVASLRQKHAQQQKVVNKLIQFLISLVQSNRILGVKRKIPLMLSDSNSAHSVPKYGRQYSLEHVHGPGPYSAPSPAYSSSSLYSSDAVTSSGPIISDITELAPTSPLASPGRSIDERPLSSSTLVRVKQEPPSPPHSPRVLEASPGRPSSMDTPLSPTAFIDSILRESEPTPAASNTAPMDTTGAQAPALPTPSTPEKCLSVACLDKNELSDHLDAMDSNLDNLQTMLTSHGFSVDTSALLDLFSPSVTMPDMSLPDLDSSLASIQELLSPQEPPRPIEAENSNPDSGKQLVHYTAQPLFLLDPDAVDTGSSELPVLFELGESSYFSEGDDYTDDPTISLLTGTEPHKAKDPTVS

Paired box protein Pax-8 = Paired box protein Pax-8 (Homo sapiens, UniProt Q06710); test: PAX8 transcriptional activity inhibition in RMG-I – RMG-I cells, luciferase, cherry-pick, dose response (AID 687027); format: functional, cell-based;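 also: luciferase reporter driven by Pax8 target thyroperoxidase promoter measured by SteadyGlo luminescence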
[11] = viability loss in HEK293 cells – cell-based, plate reader, cherry-picked samples, cytotoxicity control, dose response (AID 743446); format: functional
[12] = target: Heat shock protein HSP 90-alpha (Homo sapiens, UniProt P07900); test: Luminescence-based dose response biochemical high throughput screening assay for inhibitors of the Heat Shock Protein 90 (HSP90). [Related pubchem assays: 1831 (Summary AID.), 1846 (Confirmation screen.), 1789 (Primary screen.)]
[13] = blockade of melanocortin 4 receptor signaling – cell-based, plate reader, cherry pick, counter-screen for LGR2 antagonist project, dose response (AID 743444); format: functional;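 also: transfected HEK 293 cells stimulated with alpha-MSH peptide; potency of inhibitors of the alpha-MSH evoked signal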
[14] = HEK-293T viability loss, compound-treated – cell-based, uHTS hits, cytotoxicity control for B/T-cell NF-kB inhibitor project, dose response (AID 489019); format: functional;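 also: IC50 reflects cytotoxicity as loss of cell viability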
[15] = blockers of bursicon-stimulated LGR2 cAMP reporter – cell-based, HEK293, CRE-luciferase reporter, cherry pick, set 2, dose response (AID 743343); format: functional;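 also: transfected cells were stimulated with diluted bursicon conditioned medium after compound addition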
[16] = blockers of HIV-1 envelope-mediated cell-cell fusion – cherry-pick, dose response (AID 652057); format: functional, cell-based
[17] = A549 cell cytotoxicity, dose response, cytotoxicity control, plate reader, cherry-pick, antagonist series (AID 743412); format: functional, cell-based
[18] = blockers of HIV-1 ZM109 envelope-driven cell-cell fusion – HeLa effector, CEM target cells, luciferase, cherry-pick, dose response (AID 652058); format: functional, cell-based;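 also: luciferase signal from HIV-1 Env mediated cell-cell fusion of effector and target cells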
[19] = target: T6, Tyrosine-protein phosphatase non-receptor type 7 (Homo sapiens, UniProt P35236); test: HePTP tyrosine phosphatase activity blockers – biochemical, absorbance, leukemia target, primary screen (AID 521); format: functional
T6 sequence (P35236 whole entry): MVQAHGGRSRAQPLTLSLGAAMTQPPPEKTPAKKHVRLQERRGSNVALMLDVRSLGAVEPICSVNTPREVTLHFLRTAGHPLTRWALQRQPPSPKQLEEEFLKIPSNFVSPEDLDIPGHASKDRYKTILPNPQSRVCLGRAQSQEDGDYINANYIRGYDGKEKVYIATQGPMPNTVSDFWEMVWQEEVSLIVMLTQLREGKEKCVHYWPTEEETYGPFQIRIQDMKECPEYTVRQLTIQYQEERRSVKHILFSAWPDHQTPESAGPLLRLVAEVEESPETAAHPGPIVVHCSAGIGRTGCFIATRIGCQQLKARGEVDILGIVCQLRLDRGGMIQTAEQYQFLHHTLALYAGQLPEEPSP

T4 sequence (Q9UBE0 whole entry): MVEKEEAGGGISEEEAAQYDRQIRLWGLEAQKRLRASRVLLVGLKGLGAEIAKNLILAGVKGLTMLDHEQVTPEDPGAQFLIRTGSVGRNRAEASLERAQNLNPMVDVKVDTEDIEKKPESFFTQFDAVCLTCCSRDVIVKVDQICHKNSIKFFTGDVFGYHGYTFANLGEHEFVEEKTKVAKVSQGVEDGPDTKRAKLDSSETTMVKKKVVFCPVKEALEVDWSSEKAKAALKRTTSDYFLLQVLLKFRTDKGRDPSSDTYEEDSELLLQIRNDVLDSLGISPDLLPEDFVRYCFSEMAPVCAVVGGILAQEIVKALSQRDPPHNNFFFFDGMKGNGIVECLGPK
T4 sequence (Q9UBT2 whole entry): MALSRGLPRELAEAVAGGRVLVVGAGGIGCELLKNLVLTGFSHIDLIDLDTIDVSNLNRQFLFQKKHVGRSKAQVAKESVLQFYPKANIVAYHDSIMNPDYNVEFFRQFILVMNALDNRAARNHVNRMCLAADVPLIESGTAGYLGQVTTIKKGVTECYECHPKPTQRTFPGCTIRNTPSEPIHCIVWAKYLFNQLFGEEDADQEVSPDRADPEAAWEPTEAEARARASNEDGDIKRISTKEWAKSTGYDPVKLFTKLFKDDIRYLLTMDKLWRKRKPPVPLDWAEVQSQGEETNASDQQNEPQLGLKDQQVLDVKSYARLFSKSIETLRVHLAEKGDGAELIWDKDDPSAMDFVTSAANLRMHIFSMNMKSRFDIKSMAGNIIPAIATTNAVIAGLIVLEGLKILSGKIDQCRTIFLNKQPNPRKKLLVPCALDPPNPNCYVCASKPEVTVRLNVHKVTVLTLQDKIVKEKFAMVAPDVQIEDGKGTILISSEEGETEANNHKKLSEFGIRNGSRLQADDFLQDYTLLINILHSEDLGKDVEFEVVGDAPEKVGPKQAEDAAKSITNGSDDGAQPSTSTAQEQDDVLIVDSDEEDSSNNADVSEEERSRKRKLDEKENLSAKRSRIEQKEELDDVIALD
Mitogen-activated protein kinase 10, sequence (P53779 whole entry): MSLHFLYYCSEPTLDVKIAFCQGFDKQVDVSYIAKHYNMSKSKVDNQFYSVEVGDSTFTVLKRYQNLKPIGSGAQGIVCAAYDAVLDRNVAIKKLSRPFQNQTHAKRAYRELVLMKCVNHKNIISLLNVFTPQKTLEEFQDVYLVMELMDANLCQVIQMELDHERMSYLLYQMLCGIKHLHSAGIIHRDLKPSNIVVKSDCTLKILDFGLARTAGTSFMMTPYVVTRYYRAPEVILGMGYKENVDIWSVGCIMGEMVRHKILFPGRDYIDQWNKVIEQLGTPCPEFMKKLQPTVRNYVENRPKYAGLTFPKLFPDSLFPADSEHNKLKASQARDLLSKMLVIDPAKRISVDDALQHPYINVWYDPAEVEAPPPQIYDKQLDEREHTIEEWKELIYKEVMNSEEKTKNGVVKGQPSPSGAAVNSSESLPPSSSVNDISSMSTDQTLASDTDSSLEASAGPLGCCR
Bifunctional protein GlmU, sequence (P9WMN3 whole entry): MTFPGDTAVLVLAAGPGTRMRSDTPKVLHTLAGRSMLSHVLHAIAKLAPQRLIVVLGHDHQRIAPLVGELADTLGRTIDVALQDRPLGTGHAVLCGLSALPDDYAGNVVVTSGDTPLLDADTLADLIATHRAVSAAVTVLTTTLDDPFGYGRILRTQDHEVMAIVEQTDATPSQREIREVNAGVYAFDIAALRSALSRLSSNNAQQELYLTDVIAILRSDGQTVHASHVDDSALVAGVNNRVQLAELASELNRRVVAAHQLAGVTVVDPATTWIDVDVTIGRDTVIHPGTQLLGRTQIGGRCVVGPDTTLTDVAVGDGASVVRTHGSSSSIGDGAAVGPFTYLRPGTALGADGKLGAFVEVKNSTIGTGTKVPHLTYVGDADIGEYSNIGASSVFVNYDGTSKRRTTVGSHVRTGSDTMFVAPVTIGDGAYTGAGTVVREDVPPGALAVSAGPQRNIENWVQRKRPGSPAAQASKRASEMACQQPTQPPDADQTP
Paired box protein Pax-8, sequence (Q06710 whole entry): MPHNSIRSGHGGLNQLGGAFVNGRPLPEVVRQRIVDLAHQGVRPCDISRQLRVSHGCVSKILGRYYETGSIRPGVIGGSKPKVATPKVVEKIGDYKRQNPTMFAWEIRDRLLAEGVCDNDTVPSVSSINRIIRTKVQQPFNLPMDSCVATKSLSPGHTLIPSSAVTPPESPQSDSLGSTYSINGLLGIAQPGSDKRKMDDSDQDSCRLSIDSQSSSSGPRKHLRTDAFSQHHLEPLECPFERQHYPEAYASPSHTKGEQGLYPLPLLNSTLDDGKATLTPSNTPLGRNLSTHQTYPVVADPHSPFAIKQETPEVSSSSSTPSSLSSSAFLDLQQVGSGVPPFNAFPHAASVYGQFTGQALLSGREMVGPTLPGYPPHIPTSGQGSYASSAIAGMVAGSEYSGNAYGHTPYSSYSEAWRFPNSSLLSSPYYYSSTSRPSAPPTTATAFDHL
E3 ubiquitin-protein ligase Mdm2, sequence (Q00987 whole entry): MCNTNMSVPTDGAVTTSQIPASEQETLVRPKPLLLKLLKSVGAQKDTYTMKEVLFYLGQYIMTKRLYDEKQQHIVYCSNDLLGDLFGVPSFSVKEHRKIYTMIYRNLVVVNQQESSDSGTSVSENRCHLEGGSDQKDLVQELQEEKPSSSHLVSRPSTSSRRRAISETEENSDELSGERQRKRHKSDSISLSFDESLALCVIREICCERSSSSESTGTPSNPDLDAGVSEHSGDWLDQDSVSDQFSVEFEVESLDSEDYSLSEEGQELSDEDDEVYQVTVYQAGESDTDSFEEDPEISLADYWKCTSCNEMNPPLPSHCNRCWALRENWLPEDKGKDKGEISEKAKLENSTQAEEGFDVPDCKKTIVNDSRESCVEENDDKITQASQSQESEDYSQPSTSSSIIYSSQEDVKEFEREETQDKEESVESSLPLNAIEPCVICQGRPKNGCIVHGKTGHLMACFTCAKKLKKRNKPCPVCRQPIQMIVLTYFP
Nonstructural protein 1, sequence (Q194T2 whole entry): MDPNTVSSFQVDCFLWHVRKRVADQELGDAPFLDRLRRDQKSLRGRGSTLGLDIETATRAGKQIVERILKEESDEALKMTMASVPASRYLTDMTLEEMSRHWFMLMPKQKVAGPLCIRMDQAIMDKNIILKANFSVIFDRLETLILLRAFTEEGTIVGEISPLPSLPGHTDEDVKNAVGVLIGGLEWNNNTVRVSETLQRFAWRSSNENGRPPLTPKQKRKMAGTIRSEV

With O=C1CCN(Cc2ccccc2)S(=O)(=O)c2ccccc21 as the molecule, how does the IC50 [1] read?
Its IC50 is 39.3 µM (active).

What about the EC50 [2] of the same molecule?
The EC50 was 3.06 µM (not active).

What does the source list for NC(=O)c1c(NC(=O)C2CCCO2)sc2c1CCC2 (stereo not drawn)?
IC50 [3]: 42.5 µM (not active); IC50 (Coagulation factor XII): > 50 µM (inactive)

Which IC50 (Nonstructural protein 1) does the source give for Nc1ccccc1NC1CCCCC1 here?
The IC50 was 64.8 µM (active).

And the IC50 [4]?
The IC50 was > 50 µM (not active).

Which results are given for N#C/C(=C/c1ccc(-c2cc(C(=O)O)cc(C(=O)O)c2)o1)c1nc2ccccc2s1?
IC50 (SUMO-activating enzyme [5]): 15.9 µM (active); IC50 [6]: 19.1 µM (active); IC50 (SUMO-activating enzyme [7]): 2.81 µM (active)

Which IC50 (Jurkat) does the source give for O=C(CN1C(=O)c2ccccc2S1(=O)=O)c1ccc2c(c1)OCCO2 here?
Its IC50 is 0.17 µM (active).

What about the AC50 [8] of the same molecule?
Its AC50 is < 0.26 µM (active).

And the AC50 [9]?
Its AC50 is 0.556 µM (active).

And the EC50 [10]?
Its EC50 is 0.418 µM (active).

And the AC50 (Paired box protein Pax-8)?
Its AC50 is 1.64 µM (active).

And the AC50 [11]?
Its AC50 is > 52 µM (inactive).

What about the IC50 [12] of the same molecule?
Its IC50 is 1.39 µM (active).

What about the AC50 [13] of the same molecule?
Its AC50 is 0.206 µM (active).

What about the IC50 [14] of the same molecule?
The IC50 was > 80 µM (inactive).

What about the AC50 [15] of the same molecule?
Its AC50 is 0.126 µM (active).

What about the AC50 [16] of the same molecule?
The AC50 was 0.339 µM (active).

What about the AC50 [17] of the same molecule?
The AC50 was 22.9 µM (active).

And the AC50 [18]?
Its AC50 is 1.08 µM (active).

Which IC50 [19] does the source give for CC(=O)Oc1oc(-c2ccccc2)nc1/C=N/c1ccccn1 here?
The IC50 was > 100 µM (not active).
